Experimental data as given in patent publication EP2027081B1, “THERAPEUTIC PROSTAGLANDIN COMPOUNDS FOR THE TREATMENT OF GLAUCOMA” (ALLERGAN, INC., priority 2006, dated 2007).
Like-named read-outs stand apart in the source and are kept apart here.

Legend:
hEP2/Gqs5 = target: T1, hEP2/Gqs5 (Homo sapiens, UniProt P43116); experiment: FLIPR calcium signal study, HEK-293(EBNA) cells; assay type: cell-based
T1 construct: expressed in transfected cells; host or cells: HEK-293(EBNA)
Description: (§1) Cells were seeded at a density of 5x10^4 cells per well in Biocoat® Poly-D-lysine-coated black-wall, clear-bottom 96-well plates (Becton-Dickinson) and allowed to attach overnight in an incubator at 37 °C. Cells were then washed two times with HBSS-HEPES buffer (Hanks Balanced Salt Solution without bicarbonate and phenol red, 20 mM HEPES, pH 7.4) using a Denley Cellwash plate washer (Labsystems). After 45 minutes of dye-loading in the dark, using the calcium-sensitive dye Fluo-4 AM at a final concentration of 2 µM, plates were washed four times with HBSS-HEPES buffer to remove excess dye leaving 100 µl in each well. Plates were re-equilibrated to 37 °C for a few minutes.
Cells were excited with an Argon laser at 488 nm, and emission was measured through a 510-570 nm bandwidth emission filter (FLIPR™, Molecular Devices, Sunnyvale, CA). […] The peak increase in fluorescence intensity was recorded for each well. […] The peak fluorescence change in each drug-containing well was then expressed relative to the controls.
(§2) Compounds were tested in a high-throughput (HTS) or concentration-response (CoRe) format. In the HTS format, forty-four compounds per plate were examined in duplicates at a concentration of 10^-5 M. To generate concentration-response curves, four compounds per plate were tested in duplicates in a concentration range between 10^-5 and 10^-11 M. The duplicate values were averaged.

hTP = target: T2, hTP (Homo sapiens, UniProt P21731); experiment: FLIPR calcium signal study, HEK-293(EBNA) cells; assay type: cell-based; details: Table 1; NA means not active; read-out: FUNCTIONAL (Ca2+, EC50, nM) HTP
T2 construct: expressed in transfected cells; host or cells: HEK-293(EBNA)
T2 sequence (P21731 1-343): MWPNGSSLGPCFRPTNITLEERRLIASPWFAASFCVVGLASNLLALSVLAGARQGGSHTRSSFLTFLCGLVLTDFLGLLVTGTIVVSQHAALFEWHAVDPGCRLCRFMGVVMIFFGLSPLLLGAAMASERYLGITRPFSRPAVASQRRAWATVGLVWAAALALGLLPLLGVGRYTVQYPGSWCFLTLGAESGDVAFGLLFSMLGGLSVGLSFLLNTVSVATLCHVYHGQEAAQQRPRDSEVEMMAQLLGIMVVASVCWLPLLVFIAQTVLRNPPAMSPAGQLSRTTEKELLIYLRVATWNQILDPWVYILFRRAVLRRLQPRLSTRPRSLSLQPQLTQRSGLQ
Description: (§3) HEK-293(EBNA) cells, stably expressing one type or subtype of recombinant human prostaglandin receptors (prostaglandin receptors expressed: hDP/Gqs5; hEP1; hEP2/Gqs5; hEP3A/Gqi5; hEP4/Gqs5; hFP; hIP; hTP), were cultured in 100 mm culture dishes in high-glucose DMEM medium containing 10% fetal bovine serum, 2 mM I-glutamine, 250 µg/ml geneticin (G418) and 200 µg/ml hygromycin B as selection markers, and 100 units/ml penicillin G, 100 µg/ml streptomycin and 0.25 µg/ml amphotericin B.
as §1
(§4) Cells were excited with an Argon laser at 488 nm, and emission was measured through a 510-570 nm bandwidth emission filter (FLIPR™, Molecular Devices, Sunnyvale, CA). Drug solution was added in a 50 µl volume to each well to give the desired final concentration. The peak increase in fluorescence intensity was recorded for each well. On each plate, four wells each served as negative (HBSS-HEPES buffer) and positive controls (standard agonists: BW245C (hDP); PGE2 (hEP1; hEP2/Gqs5; hEP3A/Gqi5; hEP4/Gqs5); PGF2α (hFP); carbacyclin (hIP); U-46619 (hTP), depending on receptor). The peak fluorescence change in each drug-containing well was then expressed relative to the controls.
as §2, with “averaged. In either, HTS or CoRe format each compound was tested on at least 3 separate plates using cells from different passages to give an n ≥ 3.” for “averaged.”

human EP2 receptors = target: T3, human EP2 receptors (Homo sapiens, UniProt P43116); experiment: Competition binding, [3H]PGE2, HEK 293 cells stably expressing human EP2 receptors
T3 construct: expressed in transfected cells; host or cells: HEK 293
Description: Competition binding experiments were performed in a medium containing Hank's balanced salt solution, Hepes 20 mM, pH 7.3, membranes (∼60 µg protein) or 2x10^5 cells from HEK 293 cells stably expressing human EP2 receptors, [^3H]PGE2 (10 nM) and various concentrations of test compounds in a total volume of 300 µl. Reaction mixtures were incubated at 23 °C for 60 min, and were filtered over Whatman GF/B filters under vacuum. Filters were washed three times with 5 ml ice-cold buffer containing 50 mM Tris/HCl (pH 7.3). Non-specific binding was estimated in the presence of excess unlabeled PGE2 (10 µM). Binding data fitted to the binding model for a single class of binding sites, using nonlinear regression analysis.
(§5) HEK-293 cells stably expressing the human or feline FP receptor, or EP1, EP2, or EP4 receptors were washed with TME buffer, scraped from the bottom of the flasks, and homogenized for 30 sec using a Brinkman PT 10/35 polytron. TME buffer was added to achieve a final 40 ml volume in the centrifuge tubes (the composition of TME is 100 mM TRIS base, 20 mM MgCl2, […]; 10N HCl is added to achieve a pH of 7.4).
(§6) The cell homogenate was centrifuged at 19000 r.p.m. for 20 min at 4° C using a Beckman Ti-60 rotor. The resultant pellet was resuspended in TME buffer to give a final 1 mg/ml protein concentration, as determined by Biorad assay. Radioligand binding competition assays vs. [^3H-]17 -phenyl PGF2α (5 nM) were performed in a 100µl volume for 60 min. Binding reactions were started by adding plasma membrane fraction. The reaction was terminated by the addition of 4 ml ice-cold TRIS-HCl buffer and rapid filtration through glass fiber GF/B filters using a Brandel cell harvester. The filters were washed 3 times with ice-cold buffer and oven dried for one hour.
(§7) [^3H-] PGE2 (specific activity 180 Ci mmol) was used as the radioligand for EP receptors. [^3H] 17-phenyl PGF2α was employed for FP receptor binding studies. Binding studies employing EP1, EP2, EP4 and FP receptors were performed in duplicate in at least three separate experiments. A 200µl assay volume was used. Incubations were for 60 min at 25°C and were terminated by the addition of 4 ml of ice-cold 50 mM TRIS-HCl, followed by rapid filtration through Whatman GF/B filters and three additional 4 ml washes in a cell harvester (Brandel). Competition studies were performed using a final concentration of 5 nM [^3H]-PGE2, or 5 nM [^3H] 17-phenyl PGF2α and non-specific binding determined with 10^-5M of unlabeled PGE2, or 17-phenyl PGF2α, according to receptor subtype studied.

hEP3A/Gqi5 = target: T4, hEP3A/Gqi5 (Homo sapiens, UniProt P43115); experiment: FLIPR calcium signal study, HEK-293(EBNA) cells; assay type: cell-based
T4 construct: expressed in transfected cells; host or cells: HEK-293(EBNA)
T4 sequence (P43115 1-390): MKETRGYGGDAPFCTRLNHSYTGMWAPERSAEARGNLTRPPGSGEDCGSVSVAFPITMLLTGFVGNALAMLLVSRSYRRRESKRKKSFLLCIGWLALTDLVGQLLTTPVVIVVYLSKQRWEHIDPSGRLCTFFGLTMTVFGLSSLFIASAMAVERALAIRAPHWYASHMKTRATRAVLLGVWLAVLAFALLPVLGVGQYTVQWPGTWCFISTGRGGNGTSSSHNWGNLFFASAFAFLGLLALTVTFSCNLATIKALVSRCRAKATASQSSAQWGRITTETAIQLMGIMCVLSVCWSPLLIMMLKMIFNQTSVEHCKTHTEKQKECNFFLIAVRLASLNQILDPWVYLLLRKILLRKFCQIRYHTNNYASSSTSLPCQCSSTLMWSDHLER
Description: as §3, §1, §4
as §2, with “averaged. In either, HTS or CoRe format each compound was tested on at least 3 separate plates using cells from different passages to give an n ≥ 3.” for “averaged.”

HEP 2 = HEP 2 (Homo sapiens, UniProt P43116); experiment: cAMP mediated assay; assay type: cell-based; details: Table 1; value in brackets, footnote (a)
EP4 receptors = target: T5, EP4 receptors (Homo sapiens, UniProt P35408); experiment: Radioligand binding, EP4 receptor; details: Table 3; read-out: BINDING (Ki, nM) HEP4
T5 construct: expressed in transfected cells; host or cells: HEK-293
Description: as §5, §6, §7

HEP3 = target: T6, HEP3 (Homo sapiens, UniProt P43115); experiment: Radioligand binding, EP3 receptor; details: Table 3; NA means not active
T6 sequence (P43115 1-390): T4 sequence (P43115 1-390)

hEP4/Gqs5 = target: T7, hEP4/Gqs5 (Homo sapiens, UniProt P35408); experiment: FLIPR calcium signal study, HEK-293(EBNA) cells; assay type: cell-based; details: Table 1; NA means not active; read-out: FUNCTIONAL (Ca2+, EC50, nM) HEP 4
T7 construct: expressed in transfected cells; host or cells: HEK-293(EBNA)
Description: as §3, §1, §4
as §2, with “averaged. In either, HTS or CoRe format each compound was tested on at least 3 separate plates using cells from different passages to give an n ≥ 3.” for “averaged.”

[1] = Table 1, Ca2+ signal, NA means not active, read-out: FUNCTIONAL (Ca2+, EC50, nM) HEP 2
[2] = Table 2, unit inferred, read-out: FUNCTIONAL HEP2
[3] = Table 2, unit inferred, read-out: BINDING HEP2
[4] = Table 3, read-out: FUNCTIONAL (Ca2+, EC50, nM) HEP3A

T1 sequence (P43116 whole entry): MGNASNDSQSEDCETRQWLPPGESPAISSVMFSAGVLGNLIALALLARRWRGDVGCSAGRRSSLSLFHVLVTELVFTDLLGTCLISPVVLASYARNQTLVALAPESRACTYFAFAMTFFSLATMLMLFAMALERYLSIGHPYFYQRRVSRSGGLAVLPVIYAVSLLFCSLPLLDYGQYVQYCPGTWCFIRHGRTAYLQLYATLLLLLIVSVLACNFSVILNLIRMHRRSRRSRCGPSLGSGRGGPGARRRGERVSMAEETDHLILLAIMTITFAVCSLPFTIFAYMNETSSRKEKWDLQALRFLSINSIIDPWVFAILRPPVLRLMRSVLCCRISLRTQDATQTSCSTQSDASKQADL
T3 sequence (P43116 whole entry): as above
T5 sequence (P35408 whole entry): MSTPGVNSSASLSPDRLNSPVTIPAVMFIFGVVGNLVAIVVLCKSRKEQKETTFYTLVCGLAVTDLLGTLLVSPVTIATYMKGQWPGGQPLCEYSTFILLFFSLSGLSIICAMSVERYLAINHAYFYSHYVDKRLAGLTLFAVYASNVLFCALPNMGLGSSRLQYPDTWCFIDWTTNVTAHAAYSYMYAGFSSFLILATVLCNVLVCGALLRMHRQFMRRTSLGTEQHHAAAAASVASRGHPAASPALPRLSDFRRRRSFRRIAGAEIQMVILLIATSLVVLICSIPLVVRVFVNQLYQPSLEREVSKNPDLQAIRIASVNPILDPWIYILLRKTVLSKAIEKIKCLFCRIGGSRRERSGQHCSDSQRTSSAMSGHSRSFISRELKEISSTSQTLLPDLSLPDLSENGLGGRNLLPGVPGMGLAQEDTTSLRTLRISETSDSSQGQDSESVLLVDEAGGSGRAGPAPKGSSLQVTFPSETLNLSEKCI
HEP 2, sequence (P43116 whole entry): as the sequence (P43116 whole entry) above
T7 sequence (P35408 whole entry): as the sequence (P35408 whole entry) above

Compound	EC50 (hEP2/Gqs5; [1])	EC50 (hEP2/Gqs5; [2])	Ki (human EP2 receptors; [3])	other results
O=C(O)CCCCCC[C@H]1[C@H](Cl)CC[C@@H]1c1ccc(C(O)C2CCCCC2)cc1 (stereo partly shown) [Entry 21]	> 10000 nM	–	–	EC50 (hTP): > 10000 nM
CCCCCC(O)c1ccc([C@H]2CCC(=O)[C@@H]2CCCc2ccc(C(=O)O)s2)cc1 (stereo partly shown) [Entry 23]	2 nM	–	–	Ki (human EP2 receptors; Table 1, read-out: BINDING (Ki, nM) HEP 2): 54 nM; EC50 (hEP3A/Gqi5; Table 1, NA means not active, read-out: FUNCTIONAL (Ca2+, EC50, nM) HEP 3A): 55 nM; EC50 (HEP 2): 3 nM
CCCCC(O)Cc1ccc([C@H]2CCC(=O)[C@@H]2CCCCCCC(=O)OC)cc1 (stereo partly shown)	–	15000 nM	4600 nM	–
CCCCCC(O)c1ccc([C@H]2CCC(=O)[C@@H]2C/C=C\CCCC(=O)O)cc1 (stereo partly shown) [drawing 116]	–	–	–	Ki (EP4 receptors): 15000 nM; EC50 (hEP3A/Gqi5; [4]): 552 nM; Ki (HEP3): 15000 nM
O=C(O)CCC/C=C\C[C@H]1[C@H](Cl)CC[C@@H]1c1ccc(C(O)C2CCCCC2)cc1 (stereo partly shown) [Entry 19]	2100 nM	–	–	–
CCCCCC(O)c1ccc([C@H]2CCC(=O)[C@@H]2C/C=C\CCCC(=O)OC)cc1 (stereo partly shown) [drawing 96]	–	15000 nM	15000 nM	–
CCCC1(C(O)c2ccc([C@H]3CCC(=O)[C@@H]3C/C=C\CCCC(=O)O)cc2)CCC1 (stereo partly shown) [Entry 9]	> 10000 nM	–	–	EC50 (hEP4/Gqs5): > 10000 nM
O=C(O)CCCCCC[C@H]1C(=O)CC[C@@H]1c1ccc(C2(O)CCC2)cc1 [Entry 17]	> 10000 nM	–	–	–
CCCCCC(O)c1ccc([C@H]2CC[C@@H](F)[C@@H]2CCCCCCC(=O)O)cc1 (stereo partly shown)	–	15000 nM	600 nM	–
CCCCC(O)Cc1ccc([C@H]2CCC(=O)[C@@H]2CCCCCCC(=O)O)cc1 (stereo partly shown)	–	343 nM	700 nM	–
CCCCCC(O)c1ccc([C@H]2CC[C@@H](Cl)[C@@H]2CCCCCCC(=O)O)cc1 (stereo partly shown)	–	15000 nM	1900 nM	–
CCCCCC(O)c1ccc([C@H]2CCC(=O)[C@@H]2CCCCCCC(=O)OC)cc1 (stereo partly shown)	–	–	–	EC50 (hEP2/Gqs5; Table 3, read-out: FUNCTIONAL (Ca2+, EC50, nM) HEP2): 2160 nM; Ki (human EP2 receptors; Table 3, read-out: BINDING (Ki, nM) HEP2): 4680 nM; Ki (EP4 receptors): 15000 nM; EC50 (hEP3A/Gqi5; [4]): 3090 nM
CCCCC(O)c1ccc([C@H]2CCC(=O)[C@@H]2CCCCCCC(=O)O)cc1 (stereo partly shown)	–	–	1400 nM	EC50 (hEP2/Gqs5): 1410 nM
CCCCCC(O)c1ccc([C@H]2CCC(=O)[C@@H]2C/C=C\CCCC(=O)O)cc1 (stereo partly shown) [drawing 97]	–	1010 nM	700 nM	–
